This note sets out measurements from ChEMBL document CHEMBL1201862, “PubChem BioAssay data set” (2004).

As usually defined, the IC50 is the midpoint of a concentration-inhibition curve.

Each structure is given as a SMILES string. The source made the active and inactive calls. A value given as a limit tells only on which side of the number the result lay.

For one experiment, the target named is T1, Corticotropin-releasing factor receptor 2/Corticotropin-releasing factor-binding protein (Homo sapiens, UniProt P24387+Q13324).
T1 sequence (Q13324 whole entry): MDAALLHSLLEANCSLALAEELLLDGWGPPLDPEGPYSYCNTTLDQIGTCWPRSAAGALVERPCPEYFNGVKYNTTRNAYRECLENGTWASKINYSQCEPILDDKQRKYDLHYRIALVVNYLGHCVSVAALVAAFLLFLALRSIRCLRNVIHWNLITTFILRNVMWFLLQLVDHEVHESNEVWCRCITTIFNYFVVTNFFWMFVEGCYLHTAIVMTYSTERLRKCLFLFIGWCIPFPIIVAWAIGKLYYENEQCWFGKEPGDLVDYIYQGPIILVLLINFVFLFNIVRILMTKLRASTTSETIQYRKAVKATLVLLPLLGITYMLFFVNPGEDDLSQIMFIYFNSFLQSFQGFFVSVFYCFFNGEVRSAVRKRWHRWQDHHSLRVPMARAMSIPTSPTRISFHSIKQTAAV
T1 sequence (P24387 whole entry): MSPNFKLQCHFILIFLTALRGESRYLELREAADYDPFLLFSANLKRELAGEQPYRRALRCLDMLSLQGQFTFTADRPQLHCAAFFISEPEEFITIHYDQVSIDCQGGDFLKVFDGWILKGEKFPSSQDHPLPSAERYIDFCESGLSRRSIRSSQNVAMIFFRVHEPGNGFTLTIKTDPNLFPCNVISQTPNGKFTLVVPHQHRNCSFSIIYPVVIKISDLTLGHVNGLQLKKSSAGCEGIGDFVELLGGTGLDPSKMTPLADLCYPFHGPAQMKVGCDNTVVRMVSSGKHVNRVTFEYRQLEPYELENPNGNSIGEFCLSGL
Briefly: activators of CRF receptor 2 with binding protein – uHTS hits, confirmation (AID 602473). The class given is functional. The following applies: read-out: EC50_Mean.
For `COc1ccc(/C=C2/CC/C(=C\c3ccc(OC)c(OC)c3OC)C2=O)c(OC)c1OC`, the EC50 is > 53 µM (inactive).
On to `Cc1cccc(NC(=O)C2CC2c2ccccc2)c1C` (stereo unspecified), for which the EC50 was > 53 µM (inactive).

A further experiment concerns the target T2, Rac GTPase-activating protein 1 (Homo sapiens, UniProt Q9H0H5).
T2 sequence (Q9H0H5 whole entry): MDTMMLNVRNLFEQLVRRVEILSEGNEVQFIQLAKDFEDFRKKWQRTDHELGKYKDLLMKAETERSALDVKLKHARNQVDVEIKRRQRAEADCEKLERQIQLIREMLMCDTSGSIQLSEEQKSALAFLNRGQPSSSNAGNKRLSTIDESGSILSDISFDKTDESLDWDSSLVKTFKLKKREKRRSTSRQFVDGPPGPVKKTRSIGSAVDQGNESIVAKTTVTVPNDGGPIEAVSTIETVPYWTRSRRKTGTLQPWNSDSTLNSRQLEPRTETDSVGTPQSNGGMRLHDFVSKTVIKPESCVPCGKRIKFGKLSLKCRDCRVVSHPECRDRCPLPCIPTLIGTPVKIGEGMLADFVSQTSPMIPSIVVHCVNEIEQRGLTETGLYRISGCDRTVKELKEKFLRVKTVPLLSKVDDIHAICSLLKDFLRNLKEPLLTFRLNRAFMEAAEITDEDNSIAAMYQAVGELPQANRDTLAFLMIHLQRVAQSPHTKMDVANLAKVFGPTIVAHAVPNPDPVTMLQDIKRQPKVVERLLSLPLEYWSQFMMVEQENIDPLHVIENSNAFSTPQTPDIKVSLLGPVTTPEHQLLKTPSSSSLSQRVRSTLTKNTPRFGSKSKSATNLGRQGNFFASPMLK
Briefly: blockers of MgcRacGAP-driven Rac1 GTP hydrolysis – biochemical, ADP Hunter fluorescence, primary and confirmatory, confirmation (AID 624330). Type of experiment: functional.
Conditions: not given
`OCCN1CCN(C(S)=Nc2cccc(C(F)(F)F)c2)CC1`: the IC50 is 126 µM (active).
Consider `Cc1nc2ccccc2nc1N/N=C/c1ccc(O)cc1`, for which the IC50 was 29.2 µM (active).
Turning to `COc1cc2oc(-c3ccc(O)cc3)cc(=O)c2c(OC)c1O`, the IC50 was 18.2 µM (active).
For `COc1ccc(CN2CCN(CCCCOc3ccc(Cl)cc3)CC2)c(OC)c1OC`, the IC50 is 71.4 µM (active).
For the compound `CCN(CC(=O)NCc1ccc(F)cc1)C(=O)CN1CCN(c2ccc(OC)cc2)CC1`, the IC50 was 42.3 µM (active).
Take `COc1cc(/C=C/C(=O)OCC(=O)N2CCCc3ccccc32)ccc1O`: the IC50 was 36.1 µM (active).
Consider `c1ccc(-c2ccccc2OCCN2CCOCC2)cc1`, for which the IC50 was 111 µM (active).
Consider `CC1CN(CCCCN2C(=O)c3ccccc3C2=O)CC(C)O1` (stereo unspecified), for which the IC50 is 125 µM (active).
In the case of `COC(=O)c1ccc(CNC(=O)COC(=O)/C=C/c2ccc(O)c(OC)c2)cc1`, the IC50 was 44.4 µM (active).
